The values that follow come from BindingDB's records for doi:10.1021/acsmedchemlett.6b00315 (Ghent University, 2017).

Structures are written as SMILES.

Assay [1] can be described thus: Inhibition of methicillin-resistant Staphylococcus aureus Mu50 TRAP assessed as potentiation of vancomycin-induced antibiofilm activity treated for 4 hrs prior to vancomycin addition measured after 20 hrs.
Assay [2] can be described thus: Inhibition of methicillin-resistant Staphylococcus aureus Mu50 TRAP assessed as potentiation of vancomycin-induced antibiofilm activity cotreated with vancomycin for 24 hrs.
Test in assay [3]: as above
The source holds these as a separate data set.

In general, EC50 refers to the concentration that produces a half-maximal response. As for `O=C(NC[C@]1(O)CO[C@H](CNC(=O)c2ccccc2Cl)[C@H]1O)c1ccccc1F`, the EC50 came out at 48.6 µM in assay [1] and 62.2 µM in assay [2].

With `O=C(NC[C@H]1OC[C@H](O)[C@@H]1O)c1ccccc1Cl`, the EC50 in assay [1] was found to be 11.4 µM; in assay [2], 4.99 µM.

As for `O=C(NC[C@]1(O)CO[C@H](CNC(=O)c2ccncc2Cl)[C@H]1O)c1ccccc1`, the EC50 in assay [1] was greater than 250 µM; in assay [2] it was 232 µM.

As for `Cn1cncc1C(=O)NC[C@H]1OC[C@@](O)(CNC(=O)c2ccccc2)[C@@H]1O`, the values for the EC50 in assay [3] and in assay [1] were 58.2 µM and 46.7 µM, respectively.

Regarding `O=C(NC[C@H]1OC[C@@](O)(CNC(=O)c2ccc(-c3ccccc3)cc2)[C@@H]1O)c1ccnnc1`, the EC50 in assay [1] turned out to be 8.54 µM; in assay [2] it was 45.4 µM.

For the molecule `O=C(NC[C@H]1OC[C@@](O)(CNC(=O)C2CCCCC2)[C@@H]1O)c1ccccc1Cl`, the EC50 came out at 34 µM in assay [3] and 9.56 µM in assay [1].

As for `O=C(NC[C@H]1OC[C@@](O)(CN2Cc3ccccc3C2=O)[C@@H]1O)c1ccccc1Cl`, the EC50 came to 20.9 µM in assay [3] and 13.7 µM in assay [1].

On to `O=C(NC[C@]1(O)CO[C@H](CNC(=O)c2cccnc2Cl)[C@H]1O)c1ccccc1`, for which the EC50 in assay [1] and in assay [2] was greater than 250 µM in each case.

With `O=C(NC[C@H]1OC[C@@](O)(CNC(=O)c2ccccc2Cl)[C@@H]1O)c1ccccc1`, the values for the EC50 in assay [1] and in assay [2] were 5.58 µM and 15 µM, respectively.

Turning to `O=C(NC[C@H]1OC[C@@](O)(CN2C(=O)c3ccccc3C2=O)[C@@H]1O)c1ccc(-c2ccccc2)cc1`, the results for the EC50 in assay [3] and in assay [1] were 12.1 µM and 24.7 µM, respectively.

Take `O=C(NC[C@]1(O)CO[C@H](CNC(=O)c2ccccc2Cl)[C@H]1O)c1ccccc1`: the EC50 in assay [1] is 0.39 µM; in assay [2], 7.98 µM.

Turning to `Cc1ccc(C(=O)NC[C@]2(O)CO[C@H](CNC(=O)c3ccccc3Cl)[C@H]2O)cc1`, the EC50 was determined as 41.9 µM in assay [3] and 79.7 µM in assay [1].

`O=C(NC[C@]1(O)CO[C@H](CNC(=O)c2ccccc2Cl)[C@H]1O)c1ccoc1`: the EC50 amounted to 76.7 µM in assay [3] and 68.5 µM in assay [1].

For the molecule `CC(=O)NC[C@]1(O)CO[C@H](CNC(=O)c2ccccc2Cl)[C@H]1O`, the EC50 in assay [3] was 3.55 µM; in assay [1] it was 15.4 µM.

For `O=C(NC[C@H]1OC[C@@](O)(CNCc2ccccc2)[C@@H]1O)c1ccccc1Cl`, the EC50 in assay [3] came out at 8.42 µM; in assay [1], 6.32 µM.

In the case of `[N-]=[N+]=NC[C@]1(O)CO[C@H](CNC(=O)c2ccccc2Cl)[C@H]1O`, the results for the EC50 in assay [3] and in assay [1] were 2.34 µM and 15.1 µM, respectively.

For `O=C(NC[C@]1(O)CO[C@H](CNC(=O)c2cnccc2Cl)[C@H]1O)c1ccccc1`, the figures for the EC50 in assay [1] and in assay [2] were 200 µM and greater than 250 µM, respectively.

As for `Cn1nccc1C(=O)NC[C@H]1OC[C@@](O)(CNC(=O)c2ccccc2)[C@@H]1O`, the EC50 in assay [3] is 23.5 µM; in assay [1], 29.3 µM.

As for `O=C(NC[C@]1(O)CO[C@H](CN2C(=O)c3ccccc3C2=O)[C@H]1O)c1ccccc1Cl`, the values for the EC50 in assay [1] and in assay [2] were 0.26 µM and 1.27 µM, respectively.

On to `O=C(NC[C@]1(O)CO[C@H](CN2C(=O)c3ccccc3C2=O)[C@H]1O)c1ccnnc1`, for which the EC50 in assay [1] turned out to be 5.85 µM; in assay [2], 11.4 µM.

Turning to `O=C(NC[C@H]1OC[C@@](O)(CN2C(=O)c3ccccc3C2=O)[C@@H]1O)c1ccccc1Cl`, the EC50 was 39 µM in assay [3] and 2.63 µM in assay [1].

With `O=C(OC[C@H]1OC(O)[C@@](O)(COC(=O)c2cc(O)c(O)c(O)c2)[C@@H]1O)c1cc(O)c(O)c(O)c1` (some centres undefined) [Hamamelitannin], the EC50 in assay [3] came out at 165 µM; in assay [1] it was 146 µM.
